Results taken from ChEMBL document CHEMBL1799987, “In vivo and in vitro SAR of tetracyclic MAPKAP-K2 (MK2) inhibitors. Part II” (Bioorg Med Chem Lett, 2010).
Converted amounts (≈) assume the structure as drawn. One block for each molecule: values may come before it. The source made the active and inactive calls. No cut-off for these calls is given here.

Tests used:
[1] = Thermodynamic solubility of the compound at pH 6.8; type: physicochemical; details: buffer, read-out: Therm_solubility
Plasma = experiment: Plasma concentration in OF1 mouse at 100 mg/kg, po; type: ADME, organism-based; parameters: dose 100 mg/kg, route oral; details: in vivo
Mus musculus [2] = species: Mus musculus; experiment: animal or person; details: OF1, po, 1 h, read-out: INH
PBMC = experiment: cells; details: Homo sapiens
Mus musculus [3] = experiment: Antiarthritic activity in DBA/1 mouse assessed as inhibition of collagen-induced paw swelling at 100 mg/kg, po BID; type: functional, organism-based; parameters: dose 100 mg/kg
[4] = Plasma concentration in antigen-induced arthritic rat model at 100 mg/kg, po BID measured 16 hrs post last dose; type: ADME, organism-based; parameters: dose 100 mg/kg, route oral
Mus musculus [5] = experiment: Antiarthritic activity in DBA/1 mouse assessed as inhibition of collagen-induced joint damage at 100 mg/kg, po BID; type: functional, organism-based; parameters: dose 100 mg/kg
[6] = Clearance in rat at 1 mg/kg, po; type: ADME, organism-based; parameters: dose 1 mg/kg, route oral; details: in vivo
[7] = Plasma concentration in collagen-induced arthritic DBA/1 mouse model at 100 mg/kg, po BID measured 2 hrs post last dose; type: ADME, organism-based; parameters: dose 100 mg/kg, route oral
Mus musculus [8] = experiment: Antiarthritic activity in DBA/1 mouse assessed as inhibition of collagen-induced joint erosion at 100 mg/kg, po BID; type: functional, organism-based; parameters: dose 100 mg/kg
[9] = Half life in rat at 1 mg/kg, po; type: ADME, organism-based; parameters: dose 1 mg/kg, route oral; details: in vivo
[10] = AUC in rat at 1 mg/kg, po; type: ADME, organism-based; parameters: dose 1 mg/kg, route oral; details: plasma
Rattus norvegicus [11] = experiment: Antiarthritic activity in rat assessed as inhibition of antigen-induced paw swelling at 100 mg/kg, po BID; type: functional, organism-based; parameters: dose 100 mg/kg
[12] = Oral bioavailability in rat at 1 mg/kg; type: ADME, organism-based; details: in vivo
[13] = Plasma concentration in antigen-induced arthritic rat model at 100 mg/kg, po BID measured 2 hrs post last dose; type: ADME, organism-based; parameters: dose 100 mg/kg, route oral
[14] = Plasma concentration in collagen-induced arthritic DBA/1 mouse model at 100 mg/kg, po BID measured 6 hrs post last dose; type: ADME, organism-based; parameters: dose 100 mg/kg, route oral
[15] = Plasma concentration in antigen-induced arthritic rat model at 100 mg/kg, po BID measured 6 hrs post last dose; type: ADME, organism-based; parameters: dose 100 mg/kg, route oral
Mus musculus [16] = experiment: Toxicity in collagen-induced arthritic DBA/1 mouse model assessed as body weight reduction at 100 mg/kg, po BID; type: organism-based; parameters: dose 100 mg/kg, route oral; details: in vivo
Rattus norvegicus [17] = experiment: Toxicity in antigen-induced arthritic rat model assessed as body weight reduction at 100 mg/kg, po BID; type: organism-based; parameters: dose 100 mg/kg, route oral; details: in vivo
[18] = Cmax in rat at 1 mg/kg, po; type: ADME, organism-based; parameters: dose 1 mg/kg, route oral; details: in vivo
Mus musculus [19] = experiment: Antiarthritic activity in DBA/1 mouse assessed as inhibition of collagen-induced proteoglycan loss at 100 mg/kg, po BID; type: functional, organism-based; parameters: dose 100 mg/kg
Mus musculus [20] = experiment: Antiarthritic activity in DBA/1 mouse assessed as inhibition of collagen-induced inflammatory cell infiltration at 100 mg/kg, po BID; type: functional, organism-based; parameters: dose 100 mg/kg
Rattus norvegicus [21] = experiment: Volume of distribution at steady state in rat at 1 mg/kg, po; type: ADME, organism-based; parameters: dose 1 mg/kg, route oral; details: in vivo

solubility thermodynamic [1]: < 4 µM
concentration (Plasma): 1.9 µM
Structure (SMILES): O=C1NCC2(CC2)c2[nH]c3c(c21)CCc1cnc(-c2ccc(F)nc2)cc1-3
inhibition in vivo at 100 mg/kg (Mus musculus [2]): 30%
IC50 (PBMC): 700 nM

solubility thermodynamic [1]: 51 µM (≈ 19.1 µg/mL)
Structure (SMILES): O=C1NCC2(CNC2)c2oc3c(c21)CCc1cnc(-c2cccc(F)c2)cc1-3
IC50 (PBMC): 2500 nM

solubility thermodynamic [1]: 5 µM (≈ 1.8 µg/mL)
concentration (Plasma): 15 µM
Structure (SMILES): O=C1NC2(CC2)Cc2[nH]c3c(c21)CCc1cnc(-c2cccc(F)c2)cc1-3
inhibition in vivo at 100 mg/kg (Mus musculus [2]): 55%
IC50 (PBMC): 800 nM

solubility thermodynamic [1]: 337 µM (≈ 126 µg/mL)
Structure (SMILES): O=C1NCC2(CNC2)c2[nH]c3c(c21)CCc1cnc(-c2ccccc2F)cc1-3
IC50 (PBMC): 100 nM

solubility thermodynamic [1]: < 4 µM
Structure (SMILES): O=C1NCCc2[nH]c3c(c21)CCc1cnc(-c2cccc(F)c2)cc1-3
IC50 (PBMC): 500 nM

solubility thermodynamic [1]: 47 µM (≈ 18.3 µg/mL)
concentration (Plasma): 0.6 µM
Structure (SMILES): CN1CC2(CNC(=O)c3c2[nH]c2c3CCc3cnc(-c4ccc(F)nc4)cc3-2)C1
inhibition in vivo at 100 mg/kg (Mus musculus [2]): 26%
IC50 (PBMC): 100 nM

solubility thermodynamic [1]: 10 µM (≈ 3.88 µg/mL)
concentration (Plasma): 1 µM
Structure (SMILES): CN1CC2(CNC(=O)c3c2[nH]c2c3CCc3cnc(-c4cccc(F)c4)cc3-2)C1
inhibition in vivo at 100 mg/kg (Mus musculus [2]): 0%
IC50 (PBMC): 200 nM

solubility thermodynamic [1]: < 4 µM
Structure (SMILES): O=C1NCC2(CC2)c2[nH]c3c(c21)CCc1cnc(-c2cccc(F)c2)cc1-3
IC50 (PBMC): 900 nM

solubility thermodynamic [1]: > 1000 µM
Structure (SMILES): CN1CCC2(CC1)CNC(=O)c1c2[nH]c2c1CCc1cnc(-c3ccccc3F)cc1-2
IC50 (PBMC): 200 nM

Continued, molecule first:

Structure (SMILES): CN1CC2(CNC(=O)c3c4c(n(C)c32)-c2cc(-c3ccccc3F)ncc2CC4)C1
solubility thermodynamic [1]: 41 µM (≈ 16.5 µg/mL)
IC50 (PBMC): 1100 nM

Structure (SMILES): COc1ccc(-c2ncc3c(n2)-c2[nH]c4c(c2CC3)C(=O)NC2(CC2)C4)cc1
solubility thermodynamic [1]: < 4 µM

Structure (SMILES): O=C1NCC2(CNC2)c2[nH]c3c(c21)CCc1cnc(-c2cccc(F)c2)cc1-3
IC50 (PBMC): 200 nM

Structure (SMILES): CN1CC2(CNC(=O)c3c2[nH]c2c3CCc3cnc(-c4ccc(F)nc4)nc3-2)C1
solubility thermodynamic [1]: 173 µM (≈ 67.5 µg/mL)
IC50 (PBMC): 700 nM

Structure (SMILES): COc1ccc(-c2cc3c(cn2)CCc2c-3[nH]c3c2C(=O)NCC3)cc1
solubility thermodynamic [1]: < 4 µM
IC50 (PBMC): 100 nM

Structure (SMILES): O=C1NCCc2[nH]c(-c3ccnc(-c4ccccc4F)c3)cc21
solubility thermodynamic [1]: 337 µM (≈ 104 µg/mL)
IC50 (PBMC): > 10000 nM

Structure (SMILES): COc1ccc(-c2ncc3c(n2)-c2[nH]c4c(c2CC3)C(=O)NCC42CN(C)C2)cc1
solubility thermodynamic [1]: 43 µM (≈ 17.3 µg/mL)
IC50 (PBMC): 100 nM

Structure (SMILES): COc1ccc(-c2cc3c(cn2)CCc2c-3[nH]c3c2C(=O)NC2(C3)CN(C)C2)cc1
solubility thermodynamic [1]: < 4 µM
IC50 (PBMC): 1100 nM

Structure (SMILES): O=C1NC2(CC2)Cc2[nH]c3c(c21)CCc1cnc(-c2ccc(F)nc2)cc1-3
Activity (Mus musculus [3]): Active
solubility thermodynamic [1]: 9 µM (≈ 3.24 µg/mL)
concentration at 16 h [4]: 0.5 µM
concentration (Plasma): 30 µM
Activity (Mus musculus [5]): Active
inhibition in vivo at 100 mg/kg (Mus musculus [2]): 96%
CL/F [6]: 12 mL/min/kg
concentration at 2 h [7]: 16 µM
Activity (Mus musculus [8]): Active
half-life [9]: 1.3 h
AUC [10]: 2 µM·h
Activity (Rattus norvegicus [11]): Active
IC50 (PBMC): 300 nM
bioavailability [12]: 24%
concentration at 2 h [13]: 11.7 µM
concentration at 6 h [14]: 2.4 µM
concentration at 6 h [15]: 9.8 µM
Activity (Mus musculus [16]): Non-toxic
Activity (Rattus norvegicus [17]): Non-toxic
Cmax [18]: 0.105 µM
Activity (Mus musculus [19]): Active
Activity (Mus musculus [20]): Active
Vdss (Rattus norvegicus [21]): 1.9 L/kg

Structure (SMILES): COc1ccc(-c2cc3c(cn2)CCc2c-3[nH]c3c2C(=O)NC2(CNC2)C3)cc1
solubility thermodynamic [1]: 32 µM (≈ 12.4 µg/mL)
IC50 (PBMC): 1300 nM

Structure (SMILES): COc1ccc(-c2cc3c(cn2)CCc2c-3[nH]c3c2C(=O)NC2(CC2)C3)cc1
solubility thermodynamic [1]: < 4 µM
concentration (Plasma): 25 µM
inhibition in vivo at 100 mg/kg (Mus musculus [2]): 81%
IC50 (PBMC): 200 nM

Structure (SMILES): O=C1NCC2(CN(CCF)C2)c2[nH]c3c(c21)CCc1cnc(-c2ccccc2F)cc1-3
IC50 (PBMC): 1500 nM

Structure (SMILES): CN1CC2(CNC(=O)c3c2[nH]c2c3CCc3cnc(-c4ccc(OCCN5CCOCC5)cc4)cc3-2)C1
IC50 (PBMC): 600 nM

Structure (SMILES): COCCCOc1cncc(-c2cc3c(cn2)CCc2c-3[nH]c3c2C(=O)NCC32CN(C)C2)c1
IC50 (PBMC): 700 nM
